Assay results taken from patent publication US10138468B2, “Method for differentiation of pluripotent stem cells into multi-competent renal precursors” (Hoffmann-La Roche Inc., priority 2013, dated 2018).
Entries after “also recorded” stand apart in the source; their conditions may differ.

What was measured:
[1] = tested on: hPSCs-derived Podocytes cells; test: Functional response to stressor stimulation: ZO-1 localization by immunocytochemistry and image based high content analysis; type: cell-based, human; details: podocytes at Day 13, already at Day 1, sustained at D2 and D5, DMEMF12 medium
Method: (§1) FIG. 6: Characterization of monolayer differentiated hPSCs-derived Podocytes cells at Day 13. hiPSCs have been differentiated in monolayer conditions and at Day 13 have been tested for functional response to TGF beta (10 ng/ml) stressor stimulation. The expression of the tight junction marker ZO-1 has been tested by immunocytochemistry analysis and its cellular localization by image based high content analysis (HCA).
as §1, with “7:” for “6:”, “Angiotensin II (AngII) (100 nM)” for “TGF beta (10 ng/ml)”
The cells were fixed with PBS containing 4% paraformaldehyde for 20 min at room temperature. After three washing with PBS the cells the cells were then blocked with 5% BSA solution (Blocking buffer) for 60 min. When probing for an intracellular antigen, 0.5% Triton-X was included in the blocking buffer. […] Fluorescence was acquired and analyzed by the Operetta® High Content Imaging System (PerkinElmer) followed by computer-based image analysis (ImageJ, Java-based image processing program). […]

[2] = tested on: hPSCs-derived Podocytes cells; test: Pro-inflammatory cytokine response assay (Bio-Plex Pro Cytokine, Chemokine and Growth factor assay); type: cell-based, human; details: TNFα 1 ng/ml and 5 ng/ml, 24 h, DMEMF12 medium
Method: FIG. 8a: Pro-inflammatory cytokine response assay. hPSCs-derived Podocytes cells at Day 13 upregulate the expression of pro-inflammatory markers such as IL-8 upon stimulation with TNFα (1 ng/ml and 5 ng/ml) after 24 h in DMEMF12 medium Main panel: Quantification graph: concentration in the harvested supernatant (pg/ml) of the mentioned cytokines. Bio-Plex Pro Cytokine, Chemokine and Growth factor assay was used to measure the activation of hPSCs-derived Podocytes cells in response to TNFα.
In response to proinflammatory stimuli Podocytes express specific cytokines including IL-8, Rantes, MIP-1b and MCP1. Bio-Plex Pro™ Cytokine, Chemokine and Growth factor assay (Biorad, M50-0KCAF0Y). After overnight serum starvation hiPS derived podocytes were exposed at two different concentrations of TNFα (1 and 5 ng/ml) for 24 hours. After treatment the supernatants were collected and used to quantify the Cytokine, Chemokine and Growth factor release using Bio-Plex Pro™ Cytokine, Chemokine and Growth factor assay kit (Biorad, M50-0KCAF0Y). The assay was performed following the manufacturer's instruction. To determine whether the differentiation system generates bona fide Podocytes, we challenged the iPS-derived Podocytes with proinflammatory TNFα and analyzed for cytokine and chemokine release.

**Q.** “Angiotensin II [AngII, stressor stimulation (100 nM) of podocytes]” was tested. Which “ZO-1 cellular localization (perinuclear translocation of ZO-1 expression)” value ([1]; AngII 100 nM) did it give?
**A.** remodeling and translocation of the ZO-1 expression form the membrane to the perinuclear zone

**Q.** Which “ZO-1 cellular localization (perinuclear translocation of ZO-1 expression)” value ([1]; TGF beta 10 ng/ml) does the source give for “TGF beta: stressor stimulation (10 ng/ml) of podocytes” here?
**A.** remodeling and translocation of the ZO-1 expression form the membrane to the perinuclear zone

**Q.** Which “IL-8 concentration in the harvested supernatant” value [2] does the source give for TNFα here?
**A.** increase of the supernatant concentration; also recorded: significantly upregulated

**Q.** And the “MCP1 concentration in the harvested supernatant” value [2]?
**A.** increase of the supernatant concentration; also recorded: significantly upregulated

**Q.** What about the “MIP1b concentration in the harvested supernatant” value [2] of the same substance?
**A.** increase of the supernatant concentration; also recorded: significantly upregulated

**Q.** And the “RANTES concentration in the harvested supernatant” value [2]?
**A.** increase of the supernatant concentration; also recorded: significantly upregulated
